Assay: Evaluation of stability in liver microsome
Conditions: mouse liver microsome 0.25 mg/mL, test compound 1 μM, 37° C., 30 minutes
Protocol: Solutions of the test compounds in DMSO/acetonitrile (the final concentration of each test compound was 1 μM, the final concentration of DMSO was 0.01%, and the final concentration of acetonitrile was 1%) were individually added to a liver microsome mixture solution (mouse liver microsome with a final concentration of 0.25 mg/mL, a potassium phosphate buffer with a final concentration of 100 mM, and magnesium chloride with a final concentration of 3 mM), and each mixture was pre-incubated at 37° C. for 5 minutes. […] After incubation at 37° C. for 30 minutes, a double amount of ethanol was added thereto to terminate the reaction, thereby obtaining post-reaction samples. A double amount of ethanol was added to each of the remaining mixture solutions, and a NADPH-generating system was further added thereto, thereby obtaining pre-reaction samples. The pre-reaction samples and post-reaction samples were centrifuged at 2000×g, and their supernatant was filtered through a glass filter. Each filtrate was then introduced into LC-MS/MS, and MS/MS peaks of the test compounds were detected. From the ratio of the post-reaction MS/MS peak to the pre-reaction MS/MS peak of the test compounds, the percentage of the remaining test compounds (remaining %) was calculated.

Structure (SMILES) | Remaining (%)
Nc1ncnc2c1c(C(=O)Nc1ccc(Oc3ccccc3)cc1)cn2C1CCCC1 [Compound 2 of Comparative Examples, 4-amino-7-cyclopentyl-N-(4-phenoxyphenyl)-7H-pyrrolo[2,3-d]pyrimidine-5-carboxamide, reference compound] | 0%
COCc1ccc(NC(=O)c2cn(C(C)(C)C)c3ncnc(N)c23)cc1 [Example 2, 4-amino-7-(tert-butyl)-N-(4-(methoxymethyl)phenyl)-7H-pyrrolo[2,3-d]pyrimidine-5-carboxamide] | 64%
COCc1ccc(NC(=O)c2cn(C(C)(C)C)c3ncnc(N)c23)cc1F [Example 30, 4-amino-7-(tert-butyl)-N-(3-fluoro-4-(methoxymethyl)phenyl)-7H-pyrrolo[2,3-d]pyrimidine-5-carboxamide] | 54%
COCc1ccc(NC(=O)c2cn(C(C)(C)C)c3ncnc(N)c23)c(OC)c1 [Example 33, 4-amino-7-(tert-butyl)-N-(2-methoxy-4-(methoxymethyl)phenyl)-7H-pyrrolo[2,3-d]pyrimidine-5-carboxamide] | 57%
[2H]C([2H])([2H])OCc1ccc(NC(=O)c2cn(C(C)(C)C)c3ncnc(N)c23)cc1 [Example 35, 4-amino-7-(tert-butyl)-N-(4-((methoxy-d3)-methyl)phenyl)-7H-pyrrolo[2,3-d]pyrimidine-5-carboxamide] | 58%
COCc1ccc(NC(=O)c2cn(C3(C)CC3)c3ncnc(N)c23)cc1 [Example 36, 4-amino-N-(4-(methoxymethyl)phenyl)-7-(1-methylcyclopropyl)-7H-pyrrolo[2,3-d]pyrimidine-5-carboxamide] | 73%
COCc1ccc(NC(=O)c2cn(C(C)(C)CF)c3ncnc(N)c23)cc1F [Example 41, 4-amino-7-(1-fluoro-2-methylpropan-2-yl)-N-(3-fluoro-4-(methoxymethyl)phenyl)-7H-pyrrolo[2,3-d]pyrimidine-5-carboxamide] | 56%
COCc1ccc(NC(=O)c2cn(C3(CF)CC3)c3ncnc(N)c23)cc1 [Example 45, 4-amino-7-(1-(fluoromethyl)cyclopropyl)-N-(4-(methoxymethyl)phenyl)-7H-pyrrolo[2,3-d]pyrimidine-5-carboxamide] | 66%
COCc1ccc(NC(=O)c2cn(C3(C(F)F)CC3)c3ncnc(N)c23)cc1 [Example 46, 4-amino-7-(1-(difluoromethyl)cyclopropyl)-N-(4-(methoxymethyl)phenyl)-7H-pyrrolo[2,3-d]pyrimidine-5-carboxamide] | 65%
COCc1ccc(NC(=O)c2cn(C3(C)CC3)c3ncnc(N)c23)cc1F [Example 48, 4-amino-N-(3-fluoro-4-(methoxymethyl)phenyl)-7-(1-methylcyclopropyl)-7H-pyrrolo[2,3-d]pyrimidine-5-carboxamide] | 58%
COCc1ccc(NC(=O)c2cn(C3(C4CC4)CC3)c3ncnc(N)c23)cc1 [Example 49, 7-{[1,1-bi(cyclopropane)]-1-yl}-4-amino-N-(4-(methoxymethyl)phenyl)-7H-pyrrolo[2,3-d]pyrimidine-5-carboxamide] | 67%
COCc1ccc(NC(=O)c2cn(C(C)(C)C(F)F)c3ncnc(N)c23)cc1 [Example 50, 4-amino-7-(1,1-difluoro-2-methylpropan-2-yl)-N-(4-(methoxymethyl)phenyl)-7H-pyrrolo[2,3-d]pyrimidine-5-carboxamide] | 53%
COCc1ccc(NC(=O)c2c(Br)n(C3(C)CC3)c3ncnc(N)c23)cc1 [Example 55, 4-amino-6-bromo-N-[4-(methoxymethyl)phenyl]-7-(1-methylcyclopropyl)-7H-pyrrolo[2,3-d]pyrimidine-5-carboxamide] | 56%
COCc1ccc(NC(=O)c2c(Cl)n(C3(C)CC3)c3ncnc(N)c23)cc1 [Example 56, 4-amino-6-chloro-N-[4-(methoxymethyl)phenyl]-7-(1-methylcyclopropyl)-7H-pyrrolo[2,3-d]pyrimidine-5-carboxamide] | 62%
COCc1ccc(NC(=O)c2c(OC)n(C3(C)CC3)c3ncnc(N)c23)cc1 [Example 57, 4-amino-6-methoxy-N-[4-(methoxymethyl)phenyl]-7-(1-methylcyclopropyl)-7H-pyrrolo[2,3-d]pyrimidine-5-carboxamide] | 86%
COCc1ccc(NC(=O)c2c(C)n(C(C)(C)C)c3ncnc(N)c23)cc1 [Example 60, 4-amino-7-(tert-butyl)-N-(4-(methoxymethyl)phenyl)-6-methyl-7H-pyrrolo[2,3-d]pyrimidine-5-carboxamide] | 81%
COCc1ccc(NC(=O)c2c(-c3cccnc3)n(C3(C)CC3)c3ncnc(N)c23)cc1 [Example 61, 4-amino-N-(4-(methoxymethyl)phenyl)-7-(1-methylcyclopropyl)-6-(pyridin-3-yl)-7H-pyrrolo[2,3-d]pyrimidine-5-carboxamide] | 81%

Structure (SMILES) | Remaining (%)
COCc1ccc(NC(=O)c2c(C(C)=O)n(C3(C)CC3)c3ncnc(N)c23)cc1 [Example 64, 6-acetyl-4-amino-N-(4-(methoxymethyl)phenyl)-7-(1-methylcyclopropyl)-7H-pyrrolo[2,3-d]pyrimidine-5-carboxamide] | 89%
C=Cc1c(C(=O)Nc2ccc(COC)cc2)c2c(N)ncnc2n1C1(C)CC1 [Example 65, 4-amino-N-(4-(methoxymethyl)phenyl)-7-(1-methylcyclopropyl)-6-vinyl-7H-pyrrolo[2,3-d]pyrimidine-5-carboxamide] | 79%
COCc1ccc(NC(=O)c2c(F)n(C3(C)CC3)c3ncnc(N)c23)cc1 [Example 69, 4-amino-6-fluoro-N-(4-(methoxymethyl)phenyl)-7-(1-methylcyclopropyl)-7H-pyrrolo[2,3-d]pyrimidine-5-carboxamide] | 69%
CC(C)(C)n1cc(C(=O)Nc2ccc(-c3cc[nH]n3)cc2)c2c(N)ncnc21 [Example 80, N-(4-(1H-pyrazol-3-yl)phenyl)-4-amino-7-(tert-butyl)-7H-pyrrolo[2,3-d]pyrimidine-5-carboxamide] | 50%
COCc1ccc(NC(=O)c2c(C#CCC(C)(C)O)n(C3(C)CC3)c3ncnc(N)c23)cc1 [Example 86, 4-amino-6-(4-hydroxy-4-methylpent-1-yn-1-yl)-N-[4-(methoxymethyl)phenyl]-7-(1-methylcyclopropyl)-7H-pyrrolo[2,3-d]pyrimidine-5-carboxamide] | 66%
COCc1ccc(NC(=O)c2c(C#CC3CCOCC3)n(C3(C)CC3)c3ncnc(N)c23)cc1 [Example 87, 4-amino-N-[4-(methoxymethyl)phenyl]-7-(1-methylcyclopropyl)-6-((tetrahydro-2H-pyran-4-yl)ethynyl)-7H-pyrrolo[2,3-d]pyrimidine-5-carboxamide] | 63%
COCc1ccc(NC(=O)c2c(C#CCN3CCCC3)n(C3(C)CC3)c3ncnc(N)c23)cc1 [Example 88, 4-amino-N-[4-(methoxymethyl)phenyl]-7-(1-methylcyclopropyl)-6-(3-(pyrrolidin-1-yl)prop-1-yn-1-yl)-7H-pyrrolo[2,3-d]pyrimidine-5-carboxamide] | 59%
COCc1ccc(NC(=O)c2c(OC[C@H]3CCCO3)n(C3(C)CC3)c3ncnc(N)c23)cc1 [Example 89, (R)-4-amino-N-[4-(methoxymethyl)phenyl]-7-(1-methylcyclopropyl)-6-((tetrahydrofuran-2-yl)methoxy)-7H-pyrrolo[2,3-d]pyrimidine-5-carboxamide] | 69%
COCc1ccc(NC(=O)c2c(C#Cc3cnn(C)c3)n(C3(C)CC3)c3ncnc(N)c23)cc1 [Example 90, 4-amino-N-[4-(methoxymethyl)phenyl]-6-((1-methyl-1H-pyrazol-4-yl)ethynyl)-7-(1-methylcyclopropyl)-7H-pyrrolo[2,3-d]pyrimidine-5-carboxamide] | 67%
COCc1ccc(NC(=O)c2c(C#Cc3cnc4cccnn34)n(C3(C)CC3)c3ncnc(N)c23)cc1 [Example 91, 4-amino-6-(imidazo[1,2-b]pyridazin-3-ylethynyl)-N-[4-(methoxymethyl)phenyl]-7-(1-methylcyclopropyl)-7H-pyrrolo[2,3-d]pyrimidine-5-carboxamide] | 65%
COCc1ccc(NC(=O)c2c(C#Cc3ccn(C)n3)n(C3(C)CC3)c3ncnc(N)c23)cc1 [Example 92, 4-amino-N-(4-(methoxymethyl)phenyl)-6-((1-methyl-1H-pyrazol-3-yl)ethynyl)-7-(1-methylcyclopropyl)-7H-pyrrolo[2,3-d]pyrimidine-5-carboxamide] | 67%
COCc1ccc(NC(=O)c2c(C#Cc3cncn3C)n(C3(C)CC3)c3ncnc(N)c23)cc1 [Example 93, 4-amino-N-(4-(methoxymethyl)phenyl)-6-((1-methyl-1H-imidazol-5-yl)ethynyl)-7-(1-methylcyclopropyl)-7H-pyrrolo[2,3-d]pyrimidine-5-carboxamide] | 53%
COCc1ccc(NC(=O)c2c(C#Cc3cccnc3)n(C3(C)CC3)c3ncnc(N)c23)cc1 [Example 94, 4-amino-N-[4-(methoxymethyl)phenyl]-7-(1-methylcyclopropyl)-6-(pyridin-3-ylethynyl)-7H-pyrrolo[2,3-d]pyrimidine-5-carboxamide] | 60%
COCc1ccc(NC(=O)c2c(OC[C@@H](C)OC)n(C3(C)CC3)c3ncnc(N)c23)cc1 [Example 96, (R)-4-amino-N-(4-(methoxymethyl)phenyl)-6-(2-methoxypropoxy)-7-(1-methylcyclopropyl)-7H-pyrrolo[2,3-d]pyrimidine-5-carboxamide] | 71%
COCc1ccc(NC(=O)c2c(OC[C@@H]3CCCO3)n(C3(C)CC3)c3ncnc(N)c23)cc1 [Example 97, (S)-4-amino-N-(4-(methoxymethyl)phenyl)-7-(1-methylcyclopropyl)-6-((tetrahydrofuran-2-yl)methoxy)-7H-pyrrolo[2,3-d]pyrimidine-5-carboxamide] | 70%
COCc1ccc(NC(=O)c2c(OCC(C)C)n(C3(C)CC3)c3ncnc(N)c23)cc1 [Example 99, 4-amino-6-isobutoxy-N-(4-(methoxymethyl)phenyl)-7-(1-methylcyclopropyl)-7H-pyrrolo[2,3-d]pyrimidine-5-carboxamide] | 51%

— patent US10807986B2, “Fused pyrimidine compound or salt thereof” (TAIHO PHARMACEUTICAL CO., LTD., priority 2016, dated 2020)
